In publication PMC10257182, “Discovery of senolytics using machine learning” (Nature Communications, 2023):
Values joined by “and” are separate entries in the source; they are usually repeats but may differ in a detail not shown here. Equal entries are not always repeated.

Legend:
Format in all cases: cell-based, human
[1] = test system: NOXA mRNA in senescent IMR90 ER:RAS cells; experiment: NOXA mRNA expression by RT-qPCR, OIS
Experimental: (§1) Total RNA was isolated using RNAeasy kit (Quiagen). cDNA was generated with reverse transcriptase iScript (Bio-Rad). RT-qPCR was performed using SYBR Select Master Mix (Applied Biosystems) in OneStepPlus detection system (Applied Biosystems). Oligos for amplification were: NOXA Fw-[…] and Rv-[…]; b-ACTIN Fw-[…] and Rv-[…]; IL1a Fw-[…] and Rv- […]; IL1b Fw-[…] and Rv- […]; IL8 Fw-[…] and Rv-[…]; p16 Fw-CGGTCGGAGGCCGATCCAG and Rv- […]; p21Fw-[…] and Rv- […].

[2] = test system: proliferating IMR90 cells; experiment: BrdU incorporation proliferation assay
Experimental: 5-bromo-2′-deoxyuridine (BrdU) incorporation was used to measure the number of cells actively replicating DNA. Cells were incubated with 10 μM BrdU (85811, Sigma) for 18 h. After that, cells were fixed with 4% Paraformaldehyde, permeabilised, blocked and then stained for immunofluorescence using BrdU primary antibody (555627 BD Pharmigen), Alexa fluor secondary for detection, and DAPI staining for cell counting. Acquisition was done with a Nikon TI2 microscope and analysis was performed with ImageJ for cell counting.

[3] = test system: Na+/K+ ATPase pump (intracellular K+) in senescent IMR90 ER:RAS cells; experiment: Intracellular K+ determination with Asante staining, OIS
Experimental: (§2) Cells were cultured for control and senescent phenotype and then treated with the senolytics oleandrin, ouabain and periplocin at 10 nM for 72 h. Asante (Asante Potassium Green-2 AM, abcam ab142806) was added to the culture 30 min before fixation, following manufacturer instructions. DAPI staining was done before image acquisition on Nikon TI2 microscope (20x). Image analysis was performed using ImageJ 1.53k for setting intensity threshold and measuring mean intensity.

[4] = test system: senescent IMR90 ER:RAS cells; experiment: Cell survival assay using crystal violet staining, OIS, senescent cells
Experimental: (§3) Equal numbers of control and senescent cells were plated at high density on multiwell plates just before senolytic treatment addition. After treatment, cells were fixed on 0.5% glutaraldehyde (Sigma) and then dried at RT overnight. Then, wells were stained with crystal violet solution for 3 h, washed and dried. Once they were completely dry, the plates were scanned for records. Quantification was performed extracting the staining with 1% acetic acid and measuring the final solution by absorbance at 595 nm.

[5] = test system: NOXA mRNA in IMR90 cells at passage 27; experiment: NOXA mRNA expression by RT-qPCR, replicative senescence
Experimental: as §1

control A549 cells = experiment: Cell survival assay using crystal violet staining, TIS, control cells
Experimental: Equal numbers of control and senescent cells were plated at high density on multiwell plates just before senolytic treatment addition. After treatment, cells were fixed on 0.5% glutaraldehyde (Sigma) and then dried at RT overnight. Then, wells were stained with crystal violet solution for 3 h, washed and dried. Once they were completely dry, the plates were scanned for records. Quantification was performed extracting the staining with 1% acetic acid and measuring the final solution by absorbance at 595 nm. […]
cells per condition is indicated. (d) Cell survival assay measuring the senolytic effect in lung cancer senescent cells. The panels show a representative crystal violet staining of tissue culture dishes of confluent A549 cells treated with 100 μM etoposide and control A549 cells, all treated with 10 nM oleandrin, ouabain and periplocin, and DMSO as vehicle control for 72 hours as indicated. (e) Graph representing the cell survival by quantification of the crystal violet staining of the experiment described in (d), as described in Methods. Data represented as individual datapoints, and bars and error bars representing the mean ± SEM of 14 independent experiments. Statistical analysis was performed using a one-way ANOVA (Tukey’s test) for multiple comparisons. […]
Scale bars represent 100 μm. ns = not significant, * = p < 0.05, ** = p < 0.01, *** = p < 0.001, **** = p < 0.0001. Source data are provided as a Source Data file.

[6] = test system: control IMR90 ER:STOP cells; experiment: Cell survival assay using crystal violet staining, OIS, control cells; conditions: FIG 4B, ER:STOP cells
Experimental: as §3

[7] = test system: A549 cells treated with 100 μM etoposide; experiment: Cell survival assay using crystal violet staining, TIS, senescent cells; conditions: fraction of Control DMSO = 1, n 15
[8] = test system: Na+/K+ ATPase pump (intracellular K+) in IMR90 cells at passage 27; experiment: Intracellular K+ determination with Asante staining, replicative senescence
Experimental: as §2

[9] = test system: caspase 3/7 activity in senescent IMR90 ER:RAS cells; experiment: Caspase 3/7 activity assay; design: Caspase 3/7 activity time course (SUP FIG 9F) / Caspase 3/7 activity time course (SUP FIG 9F exp not shown): unit not given here; conditions: for Caspase 3/7 activity time course (SUP FIG 9F) / Caspase 3/7 activity time course (SUP FIG 9F exp not shown): ER:RAS cells; for Caspase 3/7 activity time course (SUP FIG 9F exp not shown): second experiment, data not shown
Experimental: IMR90 ER:STOP and IMR90 ER:RAS cells were cultured with 100 nM 4-OHT for 5 days. Cell were then plated in a multiwell plate at high density. Once cells were attached, Caspase 3/7 probe (C10423 Invitrogen) and senolytic drugs, oleandrin, ouabain and periplocin at 10 nM, were added to the media and cultured for 36 h. Time lapse imaging was recorded every hour on a Leica AF6500 microscope (10x). ImageJ 1.53k was used for positive cell counting.

SMILES: CO[C@H]1C[C@H](O[C@H]2CC[C@@]3(C)[C@H](CC[C@@H]4[C@@H]3CC[C@]3(C)[C@@H](C5=CC(=O)OC5)[C@@H](OC(C)=O)C[C@]43O)C2)O[C@@H](C)[C@@H]1O [Oleandrin, oleandrin]
- NOXA mRNA expression, group mean (Test details, Mean 2) ([1]; ER:RAS cells, 10 nM, mean of n=4): 49.05
- NOXA mRNA expression ([1]; ER:RAS cells, 10 nM, relative to ER:STOP DMSO = 1, individual replicate values): 43.71 and 48.67 and 52.89 and 50.91
- NOXA mRNA expression, in words ([1]; OIS IMR90 ER:RAS, 10 nM (Fig. 5c)): significant increase
- % BrdU positive cells, mean (Test details, Mean 2) ([2]; IMR90 cells, n 4): 69.23%
- % BrdU positive cells ([2]; IMR90 cells, single replicates (SUP FIG 9G)): 69.38% and 67.43% and 69.89% and 70.23%
- proliferation by BrdU incorporation, in words ([2]; proliferating IMR90 cells, 10 nM): none of the cardiac glycosides induced unwanted changes in proliferation
- Asante Mean intensity ([3]; FIG 4E, ER:RAS cells, individual replicate values): 67.9 and 72 and 68.8 and 66.6 and 77 and 61.9
- Mean (Asante Mean intensity, Tukey test details) ([3]; FIG 4E, ER:RAS cells, mean of n=7): 68.87
- K+ intracellular concentration, in words ([3]; OIS IMR90, 10 nM, 72 h): significantly reduced
- % Cell Survival ([4]; FIG 4B, ER:RAS cells, individual replicate values, ER:STOP DMSO = 100): 37.9% and 39.1% and 12.2% and 30.1% and 44.2% and 34.9% and 40.3% and 12.5% and 41% and 10.4% and 36% and 34.1%
- Mean (cell survival, Tukey test details) ([4]; FIG 4B, ER:RAS cells, mean of n=12 as fraction of STOP DMSO = 1): 0.3106
- cytotoxic activity / cellular content (crystal violet), in words ([4]; IMR90-ER:RAS cells undergoing OIS, 10 nM, 72 h): significant drop in cellular content
- NOXA mRNA expression, group mean (Test details, Mean 2) ([5]; Replicative Senescence (RS) cells, 10 nM, mean of n=3): 56.63
- NOXA mRNA expression ([5]; Replicative Senescence cells, 10 nM, relative to Control DMSO = 1, individual replicate values): 62.46 and 54.37 and 53.07
- NOXA mRNA expression, in words ([5]; replicative senescence IMR90, 10 nM (Fig. 5d)): significant increase
- cellular density in non-senescent control cultures, in words (control A549 cells; A549 control, 10 nM, 72 h): unchanged
- % Cell Survival (control A549 cells; Control (no etoposide) cells, Control DMSO = 100, single replicates (SUP FIG 9E)): 99.6% and 145% and 133.8% and 119.3% and 135.9% and 111.6% and 113.5% and 93% and 97.3% and 116% and 109.5% and 116.3% and 95.4% and 109%
- % Cell Survival ([6]; individual replicate values, ER:STOP DMSO = 100): 89.1% and 95.2% and 73.8% and 89.4% and 107.6% and 89% and 95.8% and 77.8% and 100% and 72.7% and 87.5% and 82.7%
- Mean (cell survival, Tukey test details) ([6]; mean of n=12 as fraction of STOP DMSO = 1): 0.8838
- Cell survival, mean (Test details, Mean 2) [7]: 0.3827
- Asante Mean intensity ([8]; Replicative Senescence cells, individual replicate values): 145.1 and 146.6 and 146 and 145.5 and 145.6
- Asante Mean intensity, group mean (Test details, Mean 2) ([8]; Replicative Senescence cells, mean of n=6): 145.7
- K+ intracellular concentration, in words ([8]; replicative senescence IMR90, 10 nM, 72 h): significantly reduced
- Caspase 3/7 activity time course (SUP FIG 9F) ([9]; 01:00:00 hours): 0.9
- Caspase 3/7 activity time course (SUP FIG 9F exp not shown) ([9]; 01:00:00 hours): 0.75
- Caspase 3/7 activity time course (SUP FIG 9F) ([9]; 05:00:00 hours): 1.1
- Caspase 3/7 activity time course (SUP FIG 9F exp not shown) ([9]; 05:00:00 hours): 1.25
- Caspase 3/7 activity time course (SUP FIG 9F) ([9]; 10:00:00 hours): 2.3
- Caspase 3/7 activity time course (SUP FIG 9F exp not shown) ([9]; 10:00:00 hours): 3.9
- Caspase 3/7 activity time course (SUP FIG 9F) ([9]; 15:00:00 hours): 3
- Caspase 3/7 activity time course (SUP FIG 9F exp not shown) ([9]; 15:00:00 hours): 7.9
- Caspase 3/7 activity time course (SUP FIG 9F) ([9]; 20:00:00 hours): 4
- Caspase 3/7 activity time course (SUP FIG 9F exp not shown) ([9]; 20:00:00 hours): 13.8
- Caspase 3/7 activity time course (SUP FIG 9F) ([9]; 1 day, 1:00:00): 7.8
- Caspase 3/7 activity time course (SUP FIG 9F exp not shown) ([9]; 1 day, 1:00:00): 16.55
- Caspase 3/7 activity time course (SUP FIG 9F) ([9]; 1 day, 6:00:00): 11
- Caspase 3/7 activity time course (SUP FIG 9F exp not shown) ([9]; 1 day, 6:00:00): 18.55
- Caspase 3/7 activity time course (SUP FIG 9F) ([9]; 1 day, 11:00:00): 13.5
- Caspase 3/7 activity time course (SUP FIG 9F exp not shown) ([9]; 1 day, 11:00:00): 19.65
- Casp3/7 activity (percentage of green fluorescent cells) ([9]; ER:RAS, 100 nM 4OHT, 10 nM compound, 35 h): 92.2%
